Measurements taken from PubChem BioAssay (NCI).
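GI50: concentration for 50% inhibition of growth. TGI denotes the concentration required for complete inhibition of growth.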

What was measured:
Experiment in all cases: NCI-60 cell line screen, 384-well format
CAKI-1 renal = system: CAKI-1 renal
NCI-H23 lung = system: NCI-H23 lung
BT-549 breast = system: BT-549 breast
SN12C renal = system: SN12C renal
SK-MEL-2 melanoma = system: SK-MEL-2 melanoma
UACC-62 melanoma = system: UACC-62 melanoma
NCI-H322M lung = system: NCI-H322M lung
COLO 205 colon = system: COLO 205 colon
SK-OV-3 ovarian = system: SK-OV-3 ovarian
MOLT-4 leukemia = system: MOLT-4 leukemia
NCI/ADR-RES ovarian = system: NCI/ADR-RES ovarian
786-0 renal = system: 786-0 renal
HL-60(TB) leukemia = system: HL-60(TB) leukemia
HT29 colon = system: HT29 colon
ACHN renal = system: ACHN renal
SF-295 CNS = system: SF-295 CNS
U251 glioblastoma = system: U251 glioblastoma
OVCAR-3 ovarian = system: OVCAR-3 ovarian
HOP-62 NSCLC = system: HOP-62 NSCLC
UACC-257 melanoma = system: UACC-257 melanoma
SF-268 CNS = system: SF-268 CNS
KM12 colon = system: KM12 colon
HCT-15 colon = system: HCT-15 colon
HCC-2998 colon = system: HCC-2998 colon
TK-10 renal = system: TK-10 renal
CCRF-CEM leukemia = system: CCRF-CEM leukemia
SW-620 colon = system: SW-620 colon
LOX IMVI melanoma = system: LOX IMVI melanoma
MDA-MB-468 breast = system: MDA-MB-468 breast
HCT-116 colon = system: HCT-116 colon
MDA-MB-435 melanoma = system: MDA-MB-435 melanoma
A498 renal = system: A498 renal
OVCAR-8 ovarian = system: OVCAR-8 ovarian
MALME-3M melanoma = system: MALME-3M melanoma
K-562 leukemia = system: K-562 leukemia
NCI-H226 lung = system: NCI-H226 lung
HS 578T breast = system: HS 578T breast
NCI-H460 NSCLC = system: NCI-H460 NSCLC
SF-539 CNS = system: SF-539 CNS
OVCAR-4 ovarian = system: OVCAR-4 ovarian
RPMI-8226 leukemia = system: RPMI-8226 leukemia
RXF 393 renal = system: RXF 393 renal
NCI-H522 lung = system: NCI-H522 lung
PC-3 prostate = system: PC-3 prostate
SNB-75 CNS = system: SNB-75 CNS
M14 melanoma = system: M14 melanoma
IGROV1 ovarian = system: IGROV1 ovarian
DU-145 prostate = system: DU-145 prostate
A549 NSCLC = system: A549 NSCLC
MCF7 breast = system: MCF7 breast
SK-MEL-28 melanoma = system: SK-MEL-28 melanoma
EKVX NSCLC = system: EKVX NSCLC
SK-MEL-5 melanoma = system: SK-MEL-5 melanoma
SNB-19 CNS = system: SNB-19 CNS

`CCOC(=O)c1cc(/C=C/c2ccc(Cl)cc2Cl)on1` showed a GI50 (CAKI-1 renal) of 1.77 µM, a TGI (CAKI-1 renal) of 3.91 µM and a GI50 (NCI-H23 lung) of 2.34 µM. The TGI (NCI-H23 lung) was 5.29 µM, the GI50 (BT-549 breast) was 2.11 µM and the TGI (BT-549 breast) was 4.35 µM. The GI50 (SN12C renal) was 1.81 µM, the TGI (SN12C renal) was 3.32 µM and the GI50 (SK-MEL-2 melanoma) was 2.12 µM. For the same compound, the TGI (SK-MEL-2 melanoma) was 4.35 µM, the GI50 (UACC-62 melanoma) was 2.08 µM and the TGI (UACC-62 melanoma) was 4.26 µM. For the same compound, the GI50 (NCI-H322M lung) was 4.04 µM, the TGI (NCI-H322M lung) was 14.1 µM and the GI50 (COLO 205 colon) was 2.72 µM. For the same compound, the TGI (COLO 205 colon) was 6.54 µM, the GI50 (SK-OV-3 ovarian) was 2.01 µM and the TGI (SK-OV-3 ovarian) was 4.15 µM. The GI50 (MOLT-4 leukemia) was 1.03 µM, the TGI (MOLT-4 leukemia) was 2.21 µM and the GI50 (NCI/ADR-RES ovarian) was 1.84 µM. It also gave a TGI (NCI/ADR-RES ovarian) of 3.3 µM, a GI50 ([…]-0 renal) of 1.84 µM and a TGI (786-0 renal) of 3.35 µM. It also gave a GI50 (HL-60(TB) leukemia) of 0.818 µM, a TGI (HL-60(TB) leukemia) of 2.04 µM and a GI50 (HT29 colon) of 1.92 µM. It also gave a TGI (HT29 colon) of 4.22 µM, a GI50 (ACHN renal) of 1.86 µM and a TGI (ACHN renal) of 3.39 µM. For the same compound, the GI50 (SF-295 CNS) was 2.47 µM, the TGI (SF-295 CNS) was 5.3 µM and the GI50 (U251 glioblastoma) was 1.27 µM. For the same compound, the TGI (U251 glioblastoma) was 3.3 µM, the GI50 (OVCAR-3 ovarian) was 1.85 µM and the TGI (OVCAR-3 ovarian) was 3.55 µM. For the same compound, the GI50 (HOP-62 NSCLC) was 0.469 µM, the TGI (HOP-62 NSCLC) was 2.83 µM and the GI50 (UACC-257 melanoma) was 2.95 µM. It also gave a TGI (UACC-257 melanoma) of 5.65 µM, a GI50 (SF-268 CNS) of 4.09 µM and a TGI (SF-268 CNS) of 13.5 µM. It also gave a GI50 (KM12 colon) of 0.932 µM, a TGI (KM12 colon) of 3.93 µM and a GI50 (HCT-15 colon) of 1.36 µM. It also gave a TGI (HCT-15 colon) of 4.34 µM, a GI50 (HCC-2998 colon) of 1.96 µM and a TGI (HCC-2998 colon) of 3.97 µM. For the same compound, the GI50 (TK-10 renal) was 2.37 µM, the TGI (TK-10 renal) was 4.71 µM and the GI50 (CCRF-CEM leukemia) was 1.13 µM. It also gave a TGI (CCRF-CEM leukemia) of 2.37 µM, a GI50 (SW-620 colon) of 1.36 µM and a TGI (SW-620 colon) of 3.02 µM. It also gave a GI50 (LOX IMVI melanoma) of 1.91 µM, a TGI (LOX IMVI melanoma) of 3.63 µM and a GI50 (MDA-MB-468 breast) of 2.28 µM. It also gave a TGI (MDA-MB-468 breast) of 3.94 µM, a GI50 (HCT-116 colon) of 0.74 µM and a TGI (HCT-116 colon) of 2.04 µM. It also gave a GI50 (MDA-MB-435 melanoma) of 3.41 µM, a TGI (MDA-MB-435 melanoma) of 11.3 µM and a GI50 (A498 renal) of 1.85 µM. For the same compound, the TGI (A498 renal) was 3.33 µM, the GI50 (OVCAR-8 ovarian) was 0.649 µM and the TGI (OVCAR-8 ovarian) was 11 µM. For the same compound, the GI50 (MALME-3M melanoma) was 2.39 µM, the TGI (MALME-3M melanoma) was 4.05 µM and the GI50 (K-562 leukemia) was 10.7 µM. The TGI (K-562 leukemia) was 30.8 µM, the GI50 (NCI-H226 lung) was 1.96 µM and the TGI (NCI-H226 lung) was 3.83 µM. For the same compound, the GI50 (HS 578T breast) was 1.97 µM, the TGI (HS 578T breast) was 3.54 µM and the GI50 (NCI-H460 NSCLC) was 1.22 µM. For the same compound, the TGI (NCI-H460 NSCLC) was 2.59 µM, the GI50 (SF-539 CNS) was 0.945 µM and the TGI (SF-539 CNS) was 2.19 µM. The GI50 (OVCAR-4 ovarian) was 2.63 µM, the TGI (OVCAR-4 ovarian) was 7.19 µM and the GI50 (RPMI-8226 leukemia) was 0.471 µM. It also gave a TGI (RPMI-8226 leukemia) of 1.25 µM, a GI50 (RXF 393 renal) of 1.99 µM and a TGI (RXF 393 renal) of 3.46 µM. The GI50 (NCI-H522 lung) was 2.02 µM, the TGI (NCI-H522 lung) was 3.51 µM and the GI50 (PC-3 prostate) was 1.97 µM. It also gave a TGI (PC-3 prostate) of 4.05 µM, a GI50 (SNB-75 CNS) of 3.2 µM and a TGI (SNB-75 CNS) of 6.12 µM. For the same compound, the GI50 (M14 melanoma) was 3.27 µM, the TGI (M14 melanoma) was 8.82 µM and the GI50 (IGROV1 ovarian) was 2.09 µM. The TGI (IGROV1 ovarian) was 4.34 µM, the GI50 (DU-145 prostate) was 4.46 µM and the TGI (DU-145 prostate) was > 100 µM. The GI50 (A549 NSCLC) was 2.44 µM, the TGI (A549 NSCLC) was 6.1 µM and the GI50 (MCF7 breast) was 0.662 µM. It also gave a TGI (MCF7 breast) of 2.81 µM, a GI50 (SK-MEL-28 melanoma) of 2.42 µM and a TGI (SK-MEL-28 melanoma) of 4.39 µM. For the same compound, the GI50 (EKVX NSCLC) was 2.7 µM, the TGI (EKVX NSCLC) was 8.84 µM and the GI50 (SK-MEL-5 melanoma) was 1.77 µM. The TGI (SK-MEL-5 melanoma) was 3.53 µM, the GI50 (SNB-19 CNS) was 3.1 µM and the TGI (SNB-19 CNS) was 8.17 µM.
